# Laboratory results: patent publication US20210113498A1, “TOPICAL AND TRANSDERMAL DELIVERY OF AN IRON CHELATOR TO PREVENT AND TREAT CHRONIC WOUNDS” (TAUTONA GROUP IP HOLDING COMPANY, L.L.C., priority 2018, published 2021)
# Legend:
# [1] = assay type: in vitro ADME, human
# Excerpt: To study the capacity of an intradermal patch comprising an iron chelator, such as DFO, to deliver DFO into human dermis, a vertical Franz Diffusion Cell (FIG. 8) was used to evaluate the DIDP. Full thickness human skin samples obtained under Stanford University IRB approval were mounted between the two compartments of the diffusion cell with the stratum corneum facing the donor compartment. The DIDP was applied and isotonic phosphate buffer solution agitated with a magnetic stirrer and maintained at 37° C. by a circulating water jacket. Every hour, over the course of 15 hours, skin samples were removed, washed with phosphate buffer saline (PBS) and dried with an absorbent towel. The skin samples were frozen at −20° C. and cut with a microtome into 20 μm sections. The samples were analyzed for drug content spectrophotometrically at 560 nm (Shimadzu, Japan) and the relative DFO concentration was determined. Skin biopsies of the fresh full thickness skin samples used in the Franz cell experiment after DIDP application were processed for histology. Intracellular DFO-iron aggregates were made visible using ferrocyanide staining via a modified Prussian blue reaction as described previously. Skin samples were incubated overnight in 7% potassium ferrocyanide dissolved in 3% hydrochloric acid. […]
# [2] = systemic delivery (subcutaneous, intravenous, intramuscular) within approved dose limits; cited from earlier work
# HbSS BERK mice = assay: Excisional wound healing in sickle cell mice; assay type: in vivo, mouse; conditions: 6 mm full-thickness excisional wounds, daily treatment, mean±s.e.m., in days
# Excerpt: The proposed mechanism for healing was investigated using a sickle cell mouse study (Rodrigues et al. publication pending). In this study, transgenic sickle cell mouse model, HbSS-BERK, were used to determine the effectiveness of DIDP. […] They recapitulate human sickle cell disease including hemolysis, reticulocytosis, anemia, extensive organ damage, shortened life span and pain.
# Mice. […] These mice simulate human sickle cell disease including hemolysis, reticulocytosis, anemia, extensive organ damage, shortened life span and pain26-28. HbSS-BERK mice were bred and phenotyped for human sickle hemoglobin. Genotyping for the knockout and hemoglobin transgenes was performed. Control mice (wild type) on a C57/Bl6 background [#000664] were also obtained.
# DFO delivery device. A transdermal delivery system was used to deliver DFO into the dermal tissue of the mice. […]
# Excisional wound healing. Five-month old male HbSS BERK and wild type mice were subjected to a quantitative and reproducible model of excisional wounding using an established protocol described in Galioano et al., Wound Repair Regen 12, 485-492, doi:10.1111/j.1067-1927.2004.12404.x (2004). […]
# Wound treatment. […] Wound area was measured using Image J software (NIH). […]
compound,measurement,setting,value
"CC(=O)N(O)CCCCCNC(=O)CCC(=O)N(O)CCCCCNC(=O)CCC(=O)N(O)CCCCCN [DFO, deferoxamine]",Human skin permeation (stratum corneum / dermal accumulation),[1],no permeation of the stratum corneum
same,Toxicity in adult or pediatric patients,[2],no evidence of toxicity
same,Time to complete wound closure,HbSS BERK mice,14.5 ± 0.6268
